The results in this text go back to PubChem BioAssay (NCI).

Some test systems named below: OVCAR-5 ovarian; SK-OV-3 ovarian; ACHN renal; EKVX NSCLC; MDA-MB-435; HOP-92 NSCLC; DU-145 prostate; CAKI-1 renal; CCRF-CEM leukemia; M14 melanoma.
Experiment in all cases: NCI tumour cell line growth inhibition, 48 h

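Interpolation was linear, between the two tested concentrations surrounding the appropriate level; five concentrations were tested over 48 hours in 96-well plates. Here, GI50 denotes the concentration required for 50% inhibition of growth. TGI: concentration producing complete growth inhibition.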

Regarding `COc1cc(/C=C2\CN(S(=O)(=O)c3ccc(C)cc3)C/C(=C\c3cc(CN4CCCCC4)c(O)c(OC)c3)C2=O)cc(CN2CCCCC2)c1O`, the GI50 in the assay on OVCAR-5 ovarian was 1880 nM; in the assay on SK-OV-3 ovarian, 1910 nM; with ACHN renal, 1440 nM; with EKVX NSCLC it was 1980 nM; in the assay with MDA-MB-435 it was 360 nM; in the assay on HOP-92 NSCLC, 1550 nM. Further, the GI50 in the assay on DU-145 prostate was 1850 nM; in the assay with CAKI-1 renal it was 1730 nM; in the assay with CCRF-CEM leukemia it was 307 nM; in the assay on M14 melanoma it was 1610 nM. The TGI was 3400 nM in the assay with OVCAR-5 ovarian; 3600 nM in the assay on SK-OV-3 ovarian; 2740 nM in the assay with ACHN renal; 4580 nM in the assay on EKVX NSCLC; 1390 nM in the assay with MDA-MB-435; 3190 nM in the assay on HOP-92 NSCLC. Further, the TGI amounted to 3530 nM with DU-145 prostate, 3270 nM in the assay on CAKI-1 renal, 1130 nM in the assay with CCRF-CEM leukemia and 3270 nM with M14 melanoma.
